According to PubChem BioAssay AID1963423 (Molecular Pharmacology Branch, DTP, NCI, 2024):

Tested on: 439559-082-T-J2-PDC complex spheroid growth
Test: Anticancer human tumor 439559-082-T-J2-PDC patient-derived colon adenocarcinoma cell line growth inhibition [Asc]
Details: for viability, T/C: stronger effect = lower value
Method: Multicellular complex tumor spheroid response to apoptosis pathway targeting inhibitors Alrizomadlin, Pelcitoclax, and Dasminapant in combination with a variety of drugs and investigational agents in selected tumor cell lines
The MDM2 inhibitor alrizomadlin, the Bcl-2/Bcl-xL inhibitor pelcitoclax, and the IAPs inhibitor dasminapant were evaluated both individually and in combination with standard of care and investigational anticancer small molecules within a complex spheroid model of solid tumors. . Complex spheroids include a stromal component modeled by human endothelial cells (HUVEC) and fibroblasts modeled by human mesenchymal stem cells (MSCs). The concentration ranges selected for each drug and investigational agent were based upon clinically achievable concentrations if the clinical Cmax of the agent was known.
Compounds. The drugs and investigational agents: alrizomadlin (APG-115; NSC831270), pelcitoclax (APG-1252; NSC835773), dasminapant (APG-1387;NSC834197), TAK-243 (NSC785004), copanlisib (NSC809693), olaparib (NSC753686), talazoparib (NSC767125), cobimetinib (NSC 768068), eltanexor (KPT-8602, NSC 794443), abemaciclib (NSC 768073), sotorasib (NSC818433), adagrasib (NSC 831453), MRTX-1133 (NSC 836407), Iadademestat (ORY1001, NSC 806812), and RMC-4630 (NSC839698), were obtained from the NCI Developmental Therapeutics Program Chemical Repository. The FDA-approved anticancer drug set is available from the Developmental Therapeutics Program at https://dtp.cancer.gov/organization/dscb/obtaining/available plates.htm. […] The stock solutions were prepared in dimethyl sulfoxide (DMSO, Sigma-Aldrich, St. Louis, MO, cat. D2650) at 800-fold the tested concentration and stored at -70 degrees C prior to their use. All drugs and investigational agents were tested over a range starting from a high concentration at or near the clinical Cmax and decreasing in half-log increments. If the clinical Cmax for an agent had not been determined, the highest concentration tested was 10 microM.
The patient-derived cancer (PDC) cell lines include five colon adenocarcinomas: 186277-243-T-J2-PDC, 616215-338-R-J1-PDC, 439559-082-T-J2-PDC, 463943-066-T-J2-PDC, and 519858-162-T-J1-PDC; three pancreatic carcinomas: 323965-272-R-J2-PDC, 521955-158-R6-J3-PDC, and 521955-158-R2-J5-PDC; two uterine sarcomas: 327498-152-R-J2-PDC and 993429-296-R-J1-PDC; two rhabdomyosarcomas: 755483-174-R-J1-PDC and 772245-204-R-J1-PDC; two soft tissue sarcomas: 126254-015-R-J1-PDC and 494315-158-R-J1-PDC; two malignant fibrous histiocytomas: 317291-083-R-J1-PDC and 596521-263-R-J1-PDC; two breast carcinomas: 171881-019-R-J1-PDC and 885512-296-R-J2-PDC; and one ovarian carcinoma: 6556581-035-R-J-PDC were obtained from the NCI PDMR, (https://pdmr.cancer.gov). The established cell lines HSSY-2 synovial sarcoma (RRID:CVCL 8719), SYO-1 synovial sarcoma (RRID:CVCL_7146), MPNST malignant peripheral neural sheath tumor were obtained from the Sloan Kettering Institute. The following established cell lines were purchased from the American Type Culture Collection (ATCC, Manassas, VA), Sor the received from the NCI repository:, PANC-1 pancreatic carcinoma (CRL-1469, RRID:CVCL_0480), OVCAR-5 ovarian carcinoma (RRID:CVCL_1628), OVCAR-8 ovarian carcinoma (RRID:CVCL_1629), , MCF-7 breast carcinoma (CRL-12584, RRID:CVCL_0031), MDA-MB-231 breast carcinoma (CRL-12532, RRID:CVCL_0062), NCI-H1876 small cell lung carcinoma (CRL-5902, RRID:CVCL_1503), NCI-H510A small cell lung carcinoma (HTB-184, RRID:CVCL_1565), NCI-H1417 (CRL-5869, RRID:CVCL_1469), and NCI-H196 small cell lung carcinoma (CRL-5823, RRID:CVCL_1509). Dr. Peter Houghton (Greehey Children's Cancer Research Institute, University of Texas Health Science Center, San Antonio, TX) provided Rh-18 rhabdomyosarcoma (RRID:CVCL_1659). Pooled donor human umbilical vein endothelial cells (HUVEC, Lonza, cat. CC-2519) and human mesenchymal stem cells (hMSC, Lonza, cat. PT-2501) were purchased from Lonza (Walkersville, MD).
Cell Culture. […]
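Also: spheroids exposed to agents for 7 days starting day 3 after seeding.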
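For viability, T/C in this document: percent of DMSO vehicle control viability with 100% = vehicle.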

Q: For `O=C(c1cc(Cc2n[nH]c(=O)c3ccccc23)ccc1F)N1CCN(C(=O)C2CC2)CC1` + Cc1c(S(C)(=O)=O)c(-c2cc(F)cc(N3CCN(c4ccc(NS(=O)(=O)c5ccc(NC(CCN6CCC(C(=O)OCCCP(=O)(O)O)CC6)CSc6ccccc6)c(S(=O)(=O)C(F)(F)F)c5)cc4)CC3)c2)c(-c2ccc(Cl)cc2)n1C(C)C, which IC50 (curve of first compound, second compound 0.1 µM) is on record?
A: Its IC50 is > 10 µM.

Q: And the IC50 (curve of first compound, second compound 0.316 µM)?
A: Its IC50 is > 10 µM.

Q: And the IC50 (curve of first compound, second compound 1 µM)?
A: Its IC50 is > 10 µM.

Q: What about the IC50 (curve of first compound, second compound 3.16 µM) of the same compound?
A: The IC50 was > 10 µM.

Q: And the IC50 (curve of first compound, second compound 10 µM)?
A: Its IC50 is > 10 µM.

Q: And the viability, T/C (second compound 0.1 µM, first compound 0.0316 µM)?
A: Its viability, T/C is 101%.

Q: What about the viability, T/C (second compound 0.1 µM, first compound 0.1 µM) of the same compound?
A: Its viability, T/C is 110%.

Q: What about the viability, T/C (second compound 0.1 µM, first compound 0.316 µM) of the same compound?
A: The viability, T/C was 98.4%.

Q: What about the viability, T/C (second compound 0.1 µM, first compound 1 µM) of the same compound?
A: The viability, T/C was 92.6%.

Q: What about the viability, T/C (second compound 0.1 µM, first compound 3.16 µM) of the same compound?
A: Its viability, T/C is 98.1%.

Q: What about the viability, T/C (second compound 0.1 µM, first compound 10 µM) of the same compound?
A: The viability, T/C was 90.9%.

Q: What about the viability, T/C (second compound 0.316 µM, first compound 0.0316 µM) of the same compound?
A: Its viability, T/C is 86%.

Q: And the viability, T/C (second compound 0.316 µM, first compound 0.1 µM)?
A: Its viability, T/C is 102%.

Q: And the viability, T/C (second compound 0.316 µM, first compound 0.316 µM)?
A: The viability, T/C was 109%.

Q: And the viability, T/C (second compound 0.316 µM, first compound 1 µM)?
A: The viability, T/C was 92.5%.

Q: What about the viability, T/C (second compound 0.316 µM, first compound 3.16 µM) of the same compound?
A: Its viability, T/C is 99%.

Q: What about the viability, T/C (second compound 0.316 µM, first compound 10 µM) of the same compound?
A: Its viability, T/C is 90.3%.

Q: What about the viability, T/C (second compound 1 µM, first compound 0.0316 µM) of the same compound?
A: Its viability, T/C is 91.3%.

Q: What about the viability, T/C (second compound 1 µM, first compound 0.1 µM) of the same compound?
A: Its viability, T/C is 101%.

Q: What about the viability, T/C (second compound 1 µM, first compound 0.316 µM) of the same compound?
A: The viability, T/C was 105%.

Q: What about the viability, T/C (second compound 1 µM, first compound 1 µM) of the same compound?
A: Its viability, T/C is 93%.

Q: What about the viability, T/C (second compound 1 µM, first compound 3.16 µM) of the same compound?
A: Its viability, T/C is 92.4%.

Q: And the viability, T/C (second compound 1 µM, first compound 10 µM)?
A: Its viability, T/C is 92.8%.

Q: What about the viability, T/C (second compound 3.16 µM, first compound 0.0316 µM) of the same compound?
A: Its viability, T/C is 93%.

Q: What about the viability, T/C (second compound 3.16 µM, first compound 0.1 µM) of the same compound?
A: Its viability, T/C is 101%.

Q: What about the viability, T/C (second compound 3.16 µM, first compound 0.316 µM) of the same compound?
A: Its viability, T/C is 96.1%.

Q: What about the viability, T/C (second compound 3.16 µM, first compound 1 µM) of the same compound?
A: The viability, T/C was 80%.

Q: What about the viability, T/C (second compound 3.16 µM, first compound 3.16 µM) of the same compound?
A: The viability, T/C was 98.4%.

Q: What about the viability, T/C (second compound 3.16 µM, first compound 10 µM) of the same compound?
A: Its viability, T/C is 86.1%.

Q: What about the viability, T/C (second compound 10 µM, first compound 0.0316 µM) of the same compound?
A: Its viability, T/C is 71.6%.

Q: What about the viability, T/C (second compound 10 µM, first compound 0.1 µM) of the same compound?
A: Its viability, T/C is 73.6%.

Q: What about the viability, T/C (second compound 10 µM, first compound 0.316 µM) of the same compound?
A: The viability, T/C was 92.2%.

Q: What about the viability, T/C (second compound 10 µM, first compound 1 µM) of the same compound?
A: Its viability, T/C is 84.1%.

Q: And the viability, T/C (second compound 10 µM, first compound 3.16 µM)?
A: Its viability, T/C is 76.5%.

Q: And the viability, T/C (second compound 10 µM, first compound 10 µM)?
A: The viability, T/C was 72.7%.

Q: Which results are given for `CNC(C)C(=O)NC1CN(S(=O)(=O)c2cccc(S(=O)(=O)N3CCC4CCC(C(=O)NC(c5ccccc5)c5ccccc5)N4C(=O)C(NC(=O)C(C)NC)C3)c2)CCC2CCC(C(=O)NC(c3ccccc3)c3ccccc3)N2C1=O` (configuration not stated)?
A: viability, T/C (compound 0.01 µM): 103% [middle of 9 runs]; viability, T/C (compound 0.0316 µM): 98.1% [middle of 8 runs]; viability, T/C (compound 0.1 µM): 99.7% [middle of 9 runs]; viability, T/C (compound 0.316 µM): 98.3% [middle of 9 runs]; viability, T/C (compound 1 µM): 88.1% [middle of 9 runs]; IC50 (compound alone, run of 11/15/2022): > 1 µM; IC50 (curve of compound): > 1 µM
